According to patent US20250206758A1, “SUBSTITUTED BRIDGED RING INHIBITOR, PREPARATION METHOD THEREFOR AND APPLICATION THEREOF” (SUZHOU ZELGEN BIOPHARMACEUTICALS CO., LTD., priority 2022, published 2025):

Legend:
[1] = system: GP2D; experiment: Cell proliferation inhibition, GP2D (CellTiter-Glo 3D, 7 days); type: cell-based; conditions: 168 h
Procedure: (§1) • (a) Resuscitating cells in T75 cell culture flask: • (b) When the cell confluence reaches 80-90%, subculturing the cells.
(§2) The diluted test compound was added to a 384-well cell culture plate with a nanoliter pipetting system, and duplicate wells were set up. An equal volume of culture medium was added to the positive control group; and an equal volume of DMSO was added to the negative control group, then centrifugation was conducted at 1000 rpm for 1 min at room temperature.
(§3) Cells were inoculated into a) 384-well culture plate, with an equal volume of cells added to the negative control group, and only an equal volume of culture medium added to the positive control group. The plate was centrifuged at 1000 rpm for 1 min at room temperature, and the final DMSO concentration of the compound was 0.5% at last. The plate was placed in a 37° C., 5% CO2 constant temperature incubator for 7 days.
(§4) 20 μL/well of CellTiter-Glo® 3D to b) was added to 384-well cell culture plate, and the plate was shook at 320 rpm for 20 min in the dark, and incubated at room temperature in the dark for 2 hrs.
(§5) The luminescence value was read using an Envision multi-functional microplate reader.
(§6) The inhibition rate (IR) of the test compound was calculated using the following formula: IR (%)=(1−(RLU compound−RLU blank control)/(RLU meidum control−RLU blank control))*100%. The inhibition rates of different concentrations of compounds were calculated in Excel, and then the inhibition curves were plotted and the related parameters (including the minimum inhibition rate, maximum inhibition rate and IC50) were calculated using GraphPad Prism software.

[2] = system: AsPC-1; experiment: Cell proliferation inhibition, AsPC-1 (CellTiter-Glo 3D, 7 days); type: cell-based; conditions: Homo sapiens, ASPC1, 168 h; AsPC-1, 7 days
Procedure: as §1, §2, §3, §4, §5, §6

| Compound | IC50 [1] [nM] | IC50 [2] [nM] |
| --- | --- | --- |
| CC(=O)Nc1cc(Cl)c(C(F)(F)F)c(-c2ncc3c(N4C[C@H]5CC[C@@H](C4)N5)nc(OC[C@@]45CCCN4C[C@@]4(CC4(F)F)C5)nc3c2F)c1 [Example 38, N-(3-(4-((1R,5S)-3,8-diazabicyclo[3.2.1]octan-3-yl)-2-(((1S,7a'S)-2,2-difluorodihydro-1′H,3′H-spiro[cyclopropan-1,2′-pyrrolizin]-7a′(5′H)-yl)methoxy)-8-fluoropyridino[4,3-d]pyrimidin-7-yl)-5-chloro-4-(trifluoromethyl)phenyl)acetamide] | 14.1 | 142 |
| CS(=O)(=O)Nc1cc(Cl)c(C(F)(F)F)c(-c2ncc3c(N4C[C@H]5CC[C@@H](C4)N5)nc(OC[C@@]45CCCN4C[C@@]4(CC4(F)F)C5)nc3c2F)c1 [Example 39, N-(3-(4-((1R,5S)-3,8-diazabicyclo[3.2.1]octan-3-yl)-2-(((1S,7a'S)-2,2-difluorodihydro-1′H,3′H-spiro[cyclopropan-1,2′-pyrrolizin]-7a′(5′H)-yl)methoxy)-8-fluoropyridino[4,3-d]pyrimidin-7-yl)-5-chloro-4-(trifluoromethyl)phenyl)methanesulfonamide] | 38.3 | 521 |
| Oc1cc(Cl)c(C(F)(F)F)c(-c2ncc3c(N4CC5CCC(C4)N5)nc(OC[C@@]45CCCN4C[C@@]4(CC4(F)F)C5)nc3c2F)c1 [Example 40] | 14 | 51.6 |
| N#Cc1cc(N)cc(-c2ncc3c(N4C[C@H]5CC[C@@H](C4)N5)nc(OC[C@@]45CCCN4C[C@@]4(CC4(F)F)C5)nc3c2F)c1C(F)(F)F [Example 43, 3-(4-((1R,5S)-3,8-diazabicyclo[3.2.1]octan-3-yl)-2-(((1S,7a'S)-2,2-difluorodihydro-1′H,3′H-spiro[cyclopropan-1,2′-pyrrolizin]-7a′(5′H)-yl)methoxy)-8-fluoropyridino[4,3-d]pyrimidin-7-yl)-5-amino-2-(trifluoromethyl)benzonitrile] | 4.17 | 115 |
| Nc1cc(F)c(C(F)(F)F)c(-c2ncc3c(N4C[C@H]5CC[C@@H](C4)N5)nc(OC[C@@]45CCCN4C[C@@]4(CC4(F)F)C5)nc3c2F)c1 [Example 44, 3-(4-((1R,5S)-3,8-diazabicyclo[3.2.1]octan-3-yl)-2-(((1S,7a'S)-2,2-difluorodihydro-1′H,3′H-spiro[cyclopropan-1,2′-pyrrolizin]-7a′(5′H)-yl)methoxy)-8-fluoropyridino[4,3-d]pyrimidin-7-yl)-5-fluoro-4-(trifluoromethyl)aniline] | 1.6 | 23.3 |
| Nc1cc(-c2ncc3c(N4C[C@H]5CC[C@@H](C4)N5)nc(OC[C@@]45CCCN4C[C@@]4(CC4(F)F)C5)nc3c2F)c(Cl)c(C(F)(F)F)c1 [Example 45, 3-(4-((1R,5S)-3,8-diazabicyclo[3.2.1]octan-3-yl)-2-(((1S,7a'S)-2,2-difluorodihydro-1′H,3′H-spiro[cyclopropan-1,2′-pyrrolizin]-7a′(5′H)-yl)methoxy)-8-fluoropyridino[4,3-d]pyrimidin-7-yl)-4-chloro-5-(trifluoromethyl)aniline] | 60 | 896 |
| Nc1cc(Cl)c(F)c(-c2ncc3c(N4C[C@H]5CC[C@@H](C4)N5)nc(OC[C@@]45CCCN4C[C@@]4(CC4(F)F)C5)nc3c2F)c1 [Example 46, 3-(4-((1R,5S)-3,8-diazabicyclo[3.2.1]octan-3-yl)-2-(((1S,7a'S)-2,2-difluorodihydro-1′H,3′H-spiro[cyclopropan-1,2′-pyrrolizin]-7a′(5′H)-yl)methoxy)-8-fluoropyridino[4,3-d]pyrimidin-7-yl)-5-chloro-4-fluoroaniline] | > 100 | > 1000 |
| Nc1cc(Cl)c(Cl)c(-c2ncc3c(N4C[C@H]5CC[C@@H](C4)N5)nc(OC[C@@]45CCCN4C[C@@]4(CC4(F)F)C5)nc3c2F)c1 [Example 47, 3-(4-((1R,5S)-3,8-diazabicyclo[3.2.1]octan-3-yl)-2-(((1S,7a'S)-2,2-difluorodihydro-1′H,3′H-spiro[cyclopropan-1,2′-pyrrolizin]-7a′(5′H)-yl)methoxy)-8-fluoropyridino[4,3-d]pyrimidin-7-yl)-4,5-dichloroaniline] | 4.54 | 62.3 |
